≈ marks a conversion by molar mass, not a printed value.
Tested on: Candida albicans
Assay: Antifungal activity against Candida albicans MTCC 183 after 48 hr by agar streak dilution method
Assay type: functional
Details: MTCC 183, 48 h

Q: How did the MIC turn out when `Cn1c(=O)cc(Oc2nc(NCC(=O)O)nc(Nc3ccc(C#N)cc3)n2)c2ccccc21` was run?
A: > 50 µg/mL

Q: With `CCOC(=O)CNc1nc(Nc2ccc(C#N)cc2)nc(Oc2cc(=O)n(C)c3ccccc23)n1` as the compound, how does the MIC read?
A: > 50 µg/mL

Q: Which MIC does the source give for `CC(C)Nc1nc(Nc2ccc(C#N)cc2)nc(Oc2cc(=O)n(C)c3ccccc23)n1` here?
A: 50 µg/mL (≈ 117 µM)

Tested on: Aspergillus niger
Assay: Antifungal activity against Aspergillus niger MTCC 282 after 48 hr by agar streak dilution method
Assay type: functional
Details: MTCC 282, 48 h

Q: With `Cn1c(=O)cc(Oc2nc(NCC(=O)O)nc(Nc3ccc(C#N)cc3)n2)c2ccccc21` as the compound, how does the MIC read?
A: 50 µg/mL (≈ 113 µM)

Q: For `CCOC(=O)CNc1nc(Nc2ccc(C#N)cc2)nc(Oc2cc(=O)n(C)c3ccccc23)n1`, which MIC is on record?
A: 50 µg/mL (≈ 106 µM)

Q: For `CC(C)Nc1nc(Nc2ccc(C#N)cc2)nc(Oc2cc(=O)n(C)c3ccccc23)n1`, which MIC is on record?
A: 50 µg/mL (≈ 117 µM)

Tested on: Candida albicans
Assay: Antifungal activity against Candida albicans MTCC 183 after 24 hr by paper disk diffusion method
Assay type: functional
Details: not given

Q: With `Cn1c(=O)cc(Oc2nc(NCC(=O)O)nc(Nc3ccc(C#N)cc3)n2)c2ccccc21` as the compound, how does the “inhibition zone (IZ)” value read?
A: <5 mm

Q: With `CCOC(=O)CNc1nc(Nc2ccc(C#N)cc2)nc(Oc2cc(=O)n(C)c3ccccc23)n1` as the compound, how does the “inhibition zone (IZ)” value read?
A: <5 mm

Q: Which “inhibition zone (IZ)” value does the source give for `CC(C)Nc1nc(Nc2ccc(C#N)cc2)nc(Oc2cc(=O)n(C)c3ccccc23)n1` here?
A: 7 mm

Tested on: Aspergillus niger
Assay: Antifungal activity against Aspergillus niger MTCC 282 after 24 hr by paper disk diffusion method
Assay type: functional
Details: not given

Q: Which “inhibition zone (IZ)” value does the source give for `Cn1c(=O)cc(Oc2nc(NCC(=O)O)nc(Nc3ccc(C#N)cc3)n2)c2ccccc21` here?
A: 7 mm

Q: Which “inhibition zone (IZ)” value does the source give for `CCOC(=O)CNc1nc(Nc2ccc(C#N)cc2)nc(Oc2cc(=O)n(C)c3ccccc23)n1` here?
A: 9 mm

Q: How did the “inhibition zone (IZ)” value turn out when `CC(C)Nc1nc(Nc2ccc(C#N)cc2)nc(Oc2cc(=O)n(C)c3ccccc23)n1` was run?
A: 8 mm

Tested on: Shigella flexneri
Assay: Antibacterial activity against Shigella flexneri MTCC 1457 after 24 hr by agar streak dilution method
Assay type: functional
Details: MTCC 1457, 24 h

Q: `Cn1c(=O)cc(Oc2nc(NCC(=O)O)nc(Nc3ccc(C#N)cc3)n2)c2ccccc21` was tested. Which MIC did it give?
A: 50 µg/mL (≈ 113 µM)

Q: `CCOC(=O)CNc1nc(Nc2ccc(C#N)cc2)nc(Oc2cc(=O)n(C)c3ccccc23)n1` was tested. Which MIC did it give?
A: 50 µg/mL (≈ 106 µM)

Q: How did the MIC turn out when `CC(C)Nc1nc(Nc2ccc(C#N)cc2)nc(Oc2cc(=O)n(C)c3ccccc23)n1` was run?
A: 50 µg/mL (≈ 117 µM)

Tested on: Proteus vulgaris
Assay: Antibacterial activity against Proteus vulgaris MTCC 1771 after 24 hr by agar streak dilution method
Assay type: functional
Details: MTCC 1771, 24 h

Q: With `Cn1c(=O)cc(Oc2nc(NCC(=O)O)nc(Nc3ccc(C#N)cc3)n2)c2ccccc21` as the compound, how does the MIC read?
A: 25 µg/mL (≈ 56.4 µM)

Q: `CCOC(=O)CNc1nc(Nc2ccc(C#N)cc2)nc(Oc2cc(=O)n(C)c3ccccc23)n1` was tested. Which MIC did it give?
A: 12.5 µg/mL (≈ 26.5 µM)

Q: For `CC(C)Nc1nc(Nc2ccc(C#N)cc2)nc(Oc2cc(=O)n(C)c3ccccc23)n1`, which MIC is on record?
A: 50 µg/mL (≈ 117 µM)

Tested on: Salmonella typhi
Assay: Antibacterial activity against Salmonella enterica subsp. enterica serovar Typhi MTCC 733 after 24 hr by agar streak dilution method
Assay type: functional
Details: MTCC 733, 24 h

Q: For `Cn1c(=O)cc(Oc2nc(NCC(=O)O)nc(Nc3ccc(C#N)cc3)n2)c2ccccc21`, which MIC is on record?
A: 50 µg/mL (≈ 113 µM)

Q: For `CCOC(=O)CNc1nc(Nc2ccc(C#N)cc2)nc(Oc2cc(=O)n(C)c3ccccc23)n1`, which MIC is on record?
A: 50 µg/mL (≈ 106 µM)

Q: For `CC(C)Nc1nc(Nc2ccc(C#N)cc2)nc(Oc2cc(=O)n(C)c3ccccc23)n1`, which MIC is on record?
A: 50 µg/mL (≈ 117 µM)

Tested on: Klebsiella pneumoniae
Assay: Antibacterial activity against Klebsiella pneumoniae MTCC 109 after 24 hr by agar streak dilution method
Assay type: functional
Details: MTCC 109, 24 h

Q: For `Cn1c(=O)cc(Oc2nc(NCC(=O)O)nc(Nc3ccc(C#N)cc3)n2)c2ccccc21`, which MIC is on record?
A: 50 µg/mL (≈ 113 µM)

Q: `CCOC(=O)CNc1nc(Nc2ccc(C#N)cc2)nc(Oc2cc(=O)n(C)c3ccccc23)n1` was tested. Which MIC did it give?
A: 50 µg/mL (≈ 106 µM)

Q: Which MIC does the source give for `CC(C)Nc1nc(Nc2ccc(C#N)cc2)nc(Oc2cc(=O)n(C)c3ccccc23)n1` here?
A: 50 µg/mL (≈ 117 µM)

Tested on: Pseudomonas aeruginosa
Assay: Antibacterial activity against Pseudomonas aeruginosa MTCC 741 after 24 hr by agar streak dilution method
Assay type: functional
Details: MTCC 741, 24 h

Q: How did the MIC turn out when `Cn1c(=O)cc(Oc2nc(NCC(=O)O)nc(Nc3ccc(C#N)cc3)n2)c2ccccc21` was run?
A: 50 µg/mL (≈ 113 µM)

Q: Which MIC does the source give for `CCOC(=O)CNc1nc(Nc2ccc(C#N)cc2)nc(Oc2cc(=O)n(C)c3ccccc23)n1` here?
A: 50 µg/mL (≈ 106 µM)

Q: For `CC(C)Nc1nc(Nc2ccc(C#N)cc2)nc(Oc2cc(=O)n(C)c3ccccc23)n1`, which MIC is on record?
A: 50 µg/mL (≈ 117 µM)

Tested on: Escherichia coli
Assay: Antibacterial activity against Escherichia coli MTCC 739 after 24 hr by agar streak dilution method
Assay type: functional
Details: MTCC 739, 24 h

Q: `Cn1c(=O)cc(Oc2nc(NCC(=O)O)nc(Nc3ccc(C#N)cc3)n2)c2ccccc21` was tested. Which MIC did it give?
A: 50 µg/mL (≈ 113 µM)

Q: How did the MIC turn out when `CCOC(=O)CNc1nc(Nc2ccc(C#N)cc2)nc(Oc2cc(=O)n(C)c3ccccc23)n1` was run?
A: 50 µg/mL (≈ 106 µM)

Q: For `CC(C)Nc1nc(Nc2ccc(C#N)cc2)nc(Oc2cc(=O)n(C)c3ccccc23)n1`, which MIC is on record?
A: 50 µg/mL (≈ 117 µM)

Tested on: Bacillus cereus
Assay: Antibacterial activity against Bacillus cereus MTCC 619 after 24 hr by agar streak dilution method
Assay type: functional
Details: MTCC 619, 24 h

Q: With `Cn1c(=O)cc(Oc2nc(NCC(=O)O)nc(Nc3ccc(C#N)cc3)n2)c2ccccc21` as the compound, how does the MIC read?
A: 50 µg/mL (≈ 113 µM)

Q: `CCOC(=O)CNc1nc(Nc2ccc(C#N)cc2)nc(Oc2cc(=O)n(C)c3ccccc23)n1` was tested. Which MIC did it give?
A: 50 µg/mL (≈ 106 µM)

Q: For `CC(C)Nc1nc(Nc2ccc(C#N)cc2)nc(Oc2cc(=O)n(C)c3ccccc23)n1`, which MIC is on record?
A: 25 µg/mL (≈ 58.5 µM)

Tested on: Staphylococcus aureus
Assay: Antibacterial activity against Staphylococcus aureus MTCC 96 after 24 hr by agar streak dilution method
Assay type: functional
Details: MTCC 96, 24 h

Q: With `Cn1c(=O)cc(Oc2nc(NCC(=O)O)nc(Nc3ccc(C#N)cc3)n2)c2ccccc21` as the compound, how does the MIC read?
A: 50 µg/mL (≈ 113 µM)

Q: Which MIC does the source give for `CCOC(=O)CNc1nc(Nc2ccc(C#N)cc2)nc(Oc2cc(=O)n(C)c3ccccc23)n1` here?
A: 50 µg/mL (≈ 106 µM)

Q: With `CC(C)Nc1nc(Nc2ccc(C#N)cc2)nc(Oc2cc(=O)n(C)c3ccccc23)n1` as the compound, how does the MIC read?
A: 50 µg/mL (≈ 117 µM)

Tested on: Shigella flexneri
Assay: Antibacterial activity against Shigella flexneri MTCC 1457 after 24 hr by paper disk diffusion method
Assay type: functional
Details: not given

Q: For `Cn1c(=O)cc(Oc2nc(NCC(=O)O)nc(Nc3ccc(C#N)cc3)n2)c2ccccc21`, which “inhibition zone (IZ)” value is on record?
A: 9 mm

Q: Which “inhibition zone (IZ)” value does the source give for `CCOC(=O)CNc1nc(Nc2ccc(C#N)cc2)nc(Oc2cc(=O)n(C)c3ccccc23)n1` here?
A: 11 mm

Q: With `CC(C)Nc1nc(Nc2ccc(C#N)cc2)nc(Oc2cc(=O)n(C)c3ccccc23)n1` as the compound, how does the “inhibition zone (IZ)” value read?
A: 8 mm

Tested on: Proteus vulgaris
Assay: Antibacterial activity against Proteus vulgaris MTCC 1771 after 24 hr by paper disk diffusion method
Assay type: functional
Details: not given

Q: `Cn1c(=O)cc(Oc2nc(NCC(=O)O)nc(Nc3ccc(C#N)cc3)n2)c2ccccc21` was tested. Which “inhibition zone (IZ)” value did it give?
A: 13 mm

Q: `CCOC(=O)CNc1nc(Nc2ccc(C#N)cc2)nc(Oc2cc(=O)n(C)c3ccccc23)n1` was tested. Which “inhibition zone (IZ)” value did it give?
A: 15 mm

Q: With `CC(C)Nc1nc(Nc2ccc(C#N)cc2)nc(Oc2cc(=O)n(C)c3ccccc23)n1` as the compound, how does the “inhibition zone (IZ)” value read?
A: 8 mm

Tested on: Salmonella typhi
Assay: Antibacterial activity against Salmonella enterica subsp. enterica serovar Typhi MTCC 733 after 24 hr by paper disk diffusion method
Assay type: functional
Details: not given

Q: `Cn1c(=O)cc(Oc2nc(NCC(=O)O)nc(Nc3ccc(C#N)cc3)n2)c2ccccc21` was tested. Which “inhibition zone (IZ)” value did it give?
A: 8 mm

Q: With `CCOC(=O)CNc1nc(Nc2ccc(C#N)cc2)nc(Oc2cc(=O)n(C)c3ccccc23)n1` as the compound, how does the “inhibition zone (IZ)” value read?
A: 8 mm

Q: With `CC(C)Nc1nc(Nc2ccc(C#N)cc2)nc(Oc2cc(=O)n(C)c3ccccc23)n1` as the compound, how does the “inhibition zone (IZ)” value read?
A: 6 mm

Tested on: Pseudomonas aeruginosa
Assay: Antibacterial activity against Pseudomonas aeruginosa MTCC 741 after 24 hr by paper disk diffusion method
Assay type: functional
Details: not given

Q: `Cn1c(=O)cc(Oc2nc(NCC(=O)O)nc(Nc3ccc(C#N)cc3)n2)c2ccccc21` was tested. Which “inhibition zone (IZ)” value did it give?
A: 8 mm

Q: With `CCOC(=O)CNc1nc(Nc2ccc(C#N)cc2)nc(Oc2cc(=O)n(C)c3ccccc23)n1` as the compound, how does the “inhibition zone (IZ)” value read?
A: <5 mm

Q: `CC(C)Nc1nc(Nc2ccc(C#N)cc2)nc(Oc2cc(=O)n(C)c3ccccc23)n1` was tested. Which “inhibition zone (IZ)” value did it give?
A: <5 mm

Tested on: Escherichia coli
Assay: Antibacterial activity against Escherichia coli MTCC 739 after 24 hr by paper disk diffusion method
Assay type: functional
Details: not given

Q: For `Cn1c(=O)cc(Oc2nc(NCC(=O)O)nc(Nc3ccc(C#N)cc3)n2)c2ccccc21`, which “inhibition zone (IZ)” value is on record?
A: <5 mm

Q: With `CCOC(=O)CNc1nc(Nc2ccc(C#N)cc2)nc(Oc2cc(=O)n(C)c3ccccc23)n1` as the compound, how does the “inhibition zone (IZ)” value read?
A: 7 mm

Q: For `CC(C)Nc1nc(Nc2ccc(C#N)cc2)nc(Oc2cc(=O)n(C)c3ccccc23)n1`, which “inhibition zone (IZ)” value is on record?
A: 9 mm

Tested on: Bacillus cereus
Assay: Antibacterial activity against Bacillus cereus MTCC 619 after 24 hr by paper disk diffusion method
Assay type: functional
Details: not given

Q: Which “inhibition zone (IZ)” value does the source give for `Cn1c(=O)cc(Oc2nc(NCC(=O)O)nc(Nc3ccc(C#N)cc3)n2)c2ccccc21` here?
A: 7 mm

Q: `CCOC(=O)CNc1nc(Nc2ccc(C#N)cc2)nc(Oc2cc(=O)n(C)c3ccccc23)n1` was tested. Which “inhibition zone (IZ)” value did it give?
A: 9 mm

Q: With `CC(C)Nc1nc(Nc2ccc(C#N)cc2)nc(Oc2cc(=O)n(C)c3ccccc23)n1` as the compound, how does the “inhibition zone (IZ)” value read?
A: 13 mm

Tested on: Staphylococcus aureus
Assay: Antibacterial activity against Staphylococcus aureus MTCC 96 after 24 hr by paper disk diffusion method
Assay type: functional
Details: not given

Q: For `Cn1c(=O)cc(Oc2nc(NCC(=O)O)nc(Nc3ccc(C#N)cc3)n2)c2ccccc21`, which “inhibition zone (IZ)” value is on record?
A: <5 mm

Q: With `CCOC(=O)CNc1nc(Nc2ccc(C#N)cc2)nc(Oc2cc(=O)n(C)c3ccccc23)n1` as the compound, how does the “inhibition zone (IZ)” value read?
A: 6 mm

Q: `CC(C)Nc1nc(Nc2ccc(C#N)cc2)nc(Oc2cc(=O)n(C)c3ccccc23)n1` was tested. Which “inhibition zone (IZ)” value did it give?
A: 8 mm

Source: ChEMBL document CHEMBL3046451, “Design, synthesis, characterization, and in vitro antimicrobial action of novel trisubstituted s-triazines” (2012)
